Measurements taken from patent publication US8969413B2.
pIC50: −log10 of the molar value. Read-outs that look alike come from different tables or passages of the source.

Columns and labels:
[1] = target: T1, hBGT-1 (Homo sapiens, UniProt P48065); assay: [3H]GABA uptake at human GABA transporters, tsA201 cells; assay type: cell-based
T1 construct: expressed in transfected cells; host or cells: tsA201 cells, transient (PolyFect)
Description: (§1) tsA201 cells were cultured in GlutaMAX-I DMEM supplemented with 10% fetal bovine serum, penicillin (100 U/ml), and streptomycin (100 μg/ml) at 37° C. in a humidified atmosphere of 95% air and 5% CO2. […] J. Biol. Chem. 2007, 282, 19331-19341. […] Quantification was performed by using Microscint™ 20 scintillation fluid (PerkinElmer) and a Packard TopCount microplate scintillation counter.

[2] = target: T2, hGAT-1 (Homo sapiens, UniProt P30531); assay: as above; assay type: cell-based
T2 construct: expressed in transfected cells; host or cells: tsA201 cells, transient (PolyFect)
Description: as §1

[3] = target: T3, hGAT-2 (Homo sapiens, UniProt Q9NSD5); assay: as above; assay type: cell-based
T3 construct: expressed in transfected cells; host or cells: tsA201 cells, transient (PolyFect)
Description: as §1

[4] = target: T4, hGAT-3 (Homo sapiens, UniProt P48066); assay: as above; assay type: cell-based
T4 construct: expressed in transfected cells; host or cells: tsA201 cells, transient (PolyFect)
Description: as §1

[5] = target: T5, mGAT1 (Mus musculus, UniProt P31648); assay: [3H]GABA uptake at mouse GABA transporters, HEK-293 cells; assay type: cell-based
T5 construct: expressed in transfected cells
Description: (§2) Cortical neurons were cultured essentially as previously described by removing the neopallium of 15-day old NMRI embryos by dissection followed by mild trypsination. Hertz E, Yu A C H, Hertz L, Juurlink B H J and Schousboe A. Preparation of Primary Cultures of Mouse Cortical Neurons, in A Dissection and Tissue Culture Manual of the Nervous System (Shahar A, de Vellis J, Vernadakis A and Haber B eds) pp 183-186, Alan R. Liss, Inc., New York, 198. The neurons were cultured in 10% fetal calf serum and, after 48 h, cytosine arabinoside was added to a final concentration of 20 μM to prevent glial proliferation. Four cultures of stably transfected Human Embryonic Kidney (HEK)-293 cells expressing mGAT1-4 were prepared by the method previously reported. […] J Pharmacol Exp Ther. 2002, 302, 636-644 The stable cell lines are under the selection pressure of blasticidin-S at 5 μg/mL. Determinations of the IC50 values were conducted as described earlier. […] Radioactivity was measured using Microscint™ 20 scintillation fluid (PerkinElmer) and a Packard TopCount microplate scintillation counter.

[6] = target: T6, mGAT2 (Mus musculus, UniProt P31651); assay: as above; assay type: cell-based
T6 construct: expressed in transfected cells
Description: as §2

[7] = target: T7, mGAT3 (Mus musculus, UniProt P31649); assay: as above; assay type: cell-based
T7 construct: expressed in transfected cells
Description: as §2

[8] = target: T8, mGAT4 (Mus musculus, UniProt P31650); assay: as above; assay type: cell-based
T8 construct: expressed in transfected cells
Description: as §2

[9] = test system: cortical astrocytes; assay: [3H]GABA uptake in cultured cortical astrocytes; assay type: cell-based; details: Mus musculus, Astrocyte
Description: Cortical astrocytes were cultured essentially as previously described. Hertz L, Juurlink B H J, Hertz E, Fosmark H and Schousboe A. Preparation of Primary Cultures of Mouse (Rat) Astrocytes, in A Dissection and Tissue Culture Manual of the Nervous System (Shahar A, de Vellis J, Vernadakis A and Haber B eds) pp 105-108, Alan R. Liss, Inc., New York, 1989 The neopallium was removed from new born NMRI mice (Taconic, Denmark) and passed through an 80 μm nylon sieve and cultured in modified Dulbecco's modified Eagle's medium with fetal calf serum. The calf serum was lowered from 20% to 10% over three weeks, and finally the astrocytes were allowed to differentiate using 0.25 mM dibutyryl cyclic AMP during the last week of growth.
Cortical neurons were cultured essentially as previously described by removing the neopallium of 15-day old NMRI embryos by dissection followed by mild trypsination. Hertz E, Yu A C H, Hertz L, Juurlink B H J and Schousboe A. Preparation of Primary Cultures of Mouse Cortical Neurons, in A Dissection and Tissue Culture Manual of the Nervous System (Shahar A, de Vellis J, Vernadakis A and Haber B eds) pp 183-186, Alan R. Liss, Inc., New York, 198. […] Radioactivity was measured using Microscint™ 20 scintillation fluid (PerkinElmer) and a Packard TopCount microplate scintillation counter.

[10] = test system: GABA transporters in neurons, astrocytes, or mammalian cells recombinantly expressing human or mouse transporter subtypes; assay: [3H]GABA uptake, all transporter systems; assay type: cell-based; details: 1 mM concentration
Description: as §1
Cortical astrocytes were cultured essentially as previously described. Hertz L, Juurlink B H J, Hertz E, Fosmark H and Schousboe A. Preparation of Primary Cultures of Mouse (Rat) Astrocytes, in A Dissection and Tissue Culture Manual of the Nervous System (Shahar A, de Vellis J, Vernadakis A and Haber B eds) pp 105-108, Alan R. Liss, Inc., New York, 1989 The neopallium was removed from new born NMRI mice (Taconic, Denmark) and passed through an 80 μm nylon sieve and cultured in modified Dulbecco's modified Eagle's medium with fetal calf serum. […]
Cortical neurons were cultured essentially as previously described by removing the neopallium of 15-day old NMRI embryos by dissection followed by mild trypsination. […] Radioactivity was measured using Microscint™ 20 scintillation fluid (PerkinElmer) and a Packard TopCount microplate scintillation counter.

[11] = test system: Mice; assay: minimal clonic seizure (6 Hz) test; assay type: in vivo; details: Single IP drug dose, 3 seconds, corneal electrode; for ED50: Mus musculus, ip
Excerpt: Some clinically useful AEDs are ineffective in the standard MES and scMET tests but still have anticonvulsant activities in vivo. In order to identify potential AEDs with this profile, compounds may be tested in the minimal clonic seizure (6 Hz or ‘psychomotor’) test (Barton et al., 2001). […] Test compounds are pre-administered to mice via i.p. injection. At varying times, individual mice (four per time point) are challenged with sufficient current delivered through corneal electrodes to elicit a psychomotor seizure in 97% of animals (32 mA for 3 s) (Toman et al., 1952). Untreated mice will display seizures characterized by a minimal clonic phase followed by stereotyped, automatistic behaviors described originally as being similar to the aura of human patients with partial seizures. Animals not displaying this behavior are considered protected. The test may be evaluated quantitatively by measuring the responses at varying doses at a determined time of peak effect (TPE). This test may also be conducted at 22 and 44 mA if requested by ASP staff.

[12] = test system: Mice; assay: subcutaneous picrotoxin (scPIC); assay type: in vivo
Description: Bicuculline (Bic) and Picrotoxin (Pic) are chemoconvulsants that cause clonic seizures in a manner similar to Metrazol (see scMET test). […] Therefore, as much as possible it is useful to differentiate novel AEDs pharmacologically. […]. At a previously determined time of peak effect (TPE), the animals are given a subcutaneous injection of either of the noted chemo-convulsants using the convulsive dose (CD97—a dose of 2.7 or 2.5 mg/kg, for Bic and Pic, respectively). The experimental animals are placed in isolation cages to minimize possible crowding stresses (Swinyard et al., 1961) and observed for the next 30 minutes (for Bic) or 45 minutes (for Pic) for the presence or absence of a seizure. An episode of clonic spasms, approximately 3-5 seconds, of the fore and/or hindlimbs, jaws, or vibrissae is used as the experimental endpoint.

[13] = target: GABAB receptor (Rattus norvegicus, UniProt Q9Z0U4); details: 100 μM, rat brain cortical homogenate
[14] = test system: Sprague-Dawley rats; details: for time spent in chamber, first printed value / time spent in chamber, second printed value: 1.0 mg/kg i.p.
[15] = test system: Sprague-Dawley rats; assay: μPET imaging of 11C-raclopride binding after cocaine
[16] = cocaine/saline+compound pairings, cocaine 20 mg/kg
[17] = saline/Compound 2 (CPP-115) pairings

T8 sequence (P31650 whole entry): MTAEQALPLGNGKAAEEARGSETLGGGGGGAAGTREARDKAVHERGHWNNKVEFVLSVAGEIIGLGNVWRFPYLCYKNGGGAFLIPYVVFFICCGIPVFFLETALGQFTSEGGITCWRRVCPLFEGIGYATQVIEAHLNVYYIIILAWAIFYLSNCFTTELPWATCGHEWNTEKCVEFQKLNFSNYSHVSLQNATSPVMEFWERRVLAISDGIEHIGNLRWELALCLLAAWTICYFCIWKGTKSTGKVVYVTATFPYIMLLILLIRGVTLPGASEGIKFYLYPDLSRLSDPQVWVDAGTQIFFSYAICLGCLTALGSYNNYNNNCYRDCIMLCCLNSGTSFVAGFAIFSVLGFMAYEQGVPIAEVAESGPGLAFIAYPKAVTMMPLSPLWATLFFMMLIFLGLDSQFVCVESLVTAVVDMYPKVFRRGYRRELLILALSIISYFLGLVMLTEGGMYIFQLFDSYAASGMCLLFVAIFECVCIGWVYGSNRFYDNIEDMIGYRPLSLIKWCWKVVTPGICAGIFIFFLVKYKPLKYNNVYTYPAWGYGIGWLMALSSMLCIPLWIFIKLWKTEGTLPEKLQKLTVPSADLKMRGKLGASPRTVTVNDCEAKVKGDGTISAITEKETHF
T3 sequence (Q9NSD5 whole entry): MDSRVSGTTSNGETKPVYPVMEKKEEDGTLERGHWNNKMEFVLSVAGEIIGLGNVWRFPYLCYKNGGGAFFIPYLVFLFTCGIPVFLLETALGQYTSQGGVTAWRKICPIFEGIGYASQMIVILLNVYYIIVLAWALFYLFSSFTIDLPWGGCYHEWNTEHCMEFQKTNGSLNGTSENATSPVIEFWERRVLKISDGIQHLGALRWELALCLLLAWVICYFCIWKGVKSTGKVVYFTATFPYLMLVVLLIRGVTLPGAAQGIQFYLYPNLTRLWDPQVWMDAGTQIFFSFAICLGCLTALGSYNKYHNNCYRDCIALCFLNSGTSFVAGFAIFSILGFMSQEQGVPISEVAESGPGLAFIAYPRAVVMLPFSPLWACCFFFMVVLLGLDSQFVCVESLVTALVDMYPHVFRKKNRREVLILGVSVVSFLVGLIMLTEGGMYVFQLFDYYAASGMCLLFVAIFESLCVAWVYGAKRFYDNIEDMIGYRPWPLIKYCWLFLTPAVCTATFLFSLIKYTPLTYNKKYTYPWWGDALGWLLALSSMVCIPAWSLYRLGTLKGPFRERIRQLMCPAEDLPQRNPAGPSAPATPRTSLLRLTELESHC
T6 sequence (P31651 whole entry): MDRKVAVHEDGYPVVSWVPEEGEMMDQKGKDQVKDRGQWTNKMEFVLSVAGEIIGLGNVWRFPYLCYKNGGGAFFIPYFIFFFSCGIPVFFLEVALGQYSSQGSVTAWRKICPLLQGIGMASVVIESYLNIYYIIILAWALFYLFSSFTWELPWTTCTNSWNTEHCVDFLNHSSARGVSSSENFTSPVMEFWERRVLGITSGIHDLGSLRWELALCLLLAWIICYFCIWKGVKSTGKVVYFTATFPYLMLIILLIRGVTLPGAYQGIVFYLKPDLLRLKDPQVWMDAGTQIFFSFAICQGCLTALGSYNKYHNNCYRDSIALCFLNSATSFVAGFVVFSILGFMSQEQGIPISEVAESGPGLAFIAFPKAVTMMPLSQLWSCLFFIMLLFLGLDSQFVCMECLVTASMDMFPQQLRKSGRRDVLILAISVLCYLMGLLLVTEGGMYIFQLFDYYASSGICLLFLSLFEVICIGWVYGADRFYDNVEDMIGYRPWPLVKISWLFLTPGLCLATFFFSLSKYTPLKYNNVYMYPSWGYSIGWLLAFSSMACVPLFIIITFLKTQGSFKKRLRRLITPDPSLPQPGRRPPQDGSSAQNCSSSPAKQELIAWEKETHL
T1 sequence (P48065 whole entry): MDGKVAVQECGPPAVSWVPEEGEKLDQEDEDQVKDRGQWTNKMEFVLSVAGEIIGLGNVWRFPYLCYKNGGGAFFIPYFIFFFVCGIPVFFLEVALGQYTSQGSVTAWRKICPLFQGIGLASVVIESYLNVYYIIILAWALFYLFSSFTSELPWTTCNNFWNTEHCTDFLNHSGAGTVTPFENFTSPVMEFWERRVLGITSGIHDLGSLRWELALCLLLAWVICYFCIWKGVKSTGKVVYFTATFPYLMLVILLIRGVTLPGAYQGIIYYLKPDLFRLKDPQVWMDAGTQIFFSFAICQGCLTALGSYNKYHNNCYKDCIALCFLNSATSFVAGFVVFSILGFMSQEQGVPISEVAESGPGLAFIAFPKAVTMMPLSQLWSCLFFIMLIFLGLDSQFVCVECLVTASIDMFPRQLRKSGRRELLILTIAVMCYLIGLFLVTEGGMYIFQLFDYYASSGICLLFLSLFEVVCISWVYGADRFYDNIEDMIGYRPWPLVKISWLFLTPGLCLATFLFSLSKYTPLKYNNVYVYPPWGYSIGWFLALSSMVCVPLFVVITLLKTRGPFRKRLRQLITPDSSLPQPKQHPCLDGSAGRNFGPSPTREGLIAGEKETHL
T4 sequence (P48066 whole entry): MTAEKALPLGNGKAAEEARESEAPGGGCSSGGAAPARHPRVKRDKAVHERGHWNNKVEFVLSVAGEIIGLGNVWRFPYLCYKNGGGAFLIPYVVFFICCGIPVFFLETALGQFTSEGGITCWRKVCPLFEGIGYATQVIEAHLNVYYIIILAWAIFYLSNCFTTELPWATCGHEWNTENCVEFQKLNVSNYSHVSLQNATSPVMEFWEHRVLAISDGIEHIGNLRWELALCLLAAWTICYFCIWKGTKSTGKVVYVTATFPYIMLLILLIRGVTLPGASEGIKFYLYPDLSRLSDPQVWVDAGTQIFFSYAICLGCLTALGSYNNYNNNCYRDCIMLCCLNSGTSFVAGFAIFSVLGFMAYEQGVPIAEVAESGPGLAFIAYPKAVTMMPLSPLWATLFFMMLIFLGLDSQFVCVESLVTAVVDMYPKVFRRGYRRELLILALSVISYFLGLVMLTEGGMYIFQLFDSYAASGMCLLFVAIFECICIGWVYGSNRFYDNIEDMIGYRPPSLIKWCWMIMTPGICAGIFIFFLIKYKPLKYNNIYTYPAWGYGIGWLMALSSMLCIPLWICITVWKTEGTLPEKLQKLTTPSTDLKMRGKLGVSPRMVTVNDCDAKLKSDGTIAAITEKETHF
T7 sequence (P31649 whole entry): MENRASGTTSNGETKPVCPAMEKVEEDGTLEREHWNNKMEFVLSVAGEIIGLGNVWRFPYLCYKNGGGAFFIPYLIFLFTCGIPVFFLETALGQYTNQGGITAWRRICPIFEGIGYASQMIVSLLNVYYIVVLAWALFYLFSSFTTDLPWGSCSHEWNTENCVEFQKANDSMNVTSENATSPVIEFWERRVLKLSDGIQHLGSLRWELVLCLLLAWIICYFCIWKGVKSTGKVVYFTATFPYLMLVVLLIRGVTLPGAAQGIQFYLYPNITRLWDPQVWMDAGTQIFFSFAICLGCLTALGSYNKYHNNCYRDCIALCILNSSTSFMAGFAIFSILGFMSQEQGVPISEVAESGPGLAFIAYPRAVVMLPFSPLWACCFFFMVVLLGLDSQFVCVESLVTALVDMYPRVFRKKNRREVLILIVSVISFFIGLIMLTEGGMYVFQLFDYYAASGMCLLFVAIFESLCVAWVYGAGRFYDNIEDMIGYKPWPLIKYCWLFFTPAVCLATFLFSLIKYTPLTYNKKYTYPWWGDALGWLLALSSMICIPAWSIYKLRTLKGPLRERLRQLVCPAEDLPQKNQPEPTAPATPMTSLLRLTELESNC
T2 sequence (P30531 whole entry): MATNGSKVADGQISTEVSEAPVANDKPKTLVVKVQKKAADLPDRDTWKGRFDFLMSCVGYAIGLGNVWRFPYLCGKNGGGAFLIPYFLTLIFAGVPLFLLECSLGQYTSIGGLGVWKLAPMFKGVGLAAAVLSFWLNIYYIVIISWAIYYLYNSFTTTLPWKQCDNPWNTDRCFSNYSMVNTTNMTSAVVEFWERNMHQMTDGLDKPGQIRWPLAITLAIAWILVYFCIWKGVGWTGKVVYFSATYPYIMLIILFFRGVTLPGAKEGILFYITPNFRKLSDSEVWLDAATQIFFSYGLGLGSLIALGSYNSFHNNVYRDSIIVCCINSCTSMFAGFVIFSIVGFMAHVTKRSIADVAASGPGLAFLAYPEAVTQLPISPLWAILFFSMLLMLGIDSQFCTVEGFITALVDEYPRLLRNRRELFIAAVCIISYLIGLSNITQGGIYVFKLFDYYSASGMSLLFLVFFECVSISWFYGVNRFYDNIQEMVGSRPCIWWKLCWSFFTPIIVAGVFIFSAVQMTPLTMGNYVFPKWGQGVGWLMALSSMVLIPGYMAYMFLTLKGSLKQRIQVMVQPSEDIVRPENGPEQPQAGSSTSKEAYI

`N[C@H]1C[C@@H](C(=O)O)CC1=C(F)F` [CPP-115] was tested, and the pIC50 [1] was under 3.00, the pIC50 [2] was under 3.00 and the pIC50 [3] was under 3.00. The pIC50 [4] was under 3.00, the pIC50 [5] was under 3.00 and the pIC50 [6] was under 3.00. The pIC50 [7] was under 3.00, the pIC50 [8] was under 3.00 and the pIC50 [9] was under 3.00. The “inhibitory activity at GABA transporters” value [10] was “no inhibitory activity”, the ED50 ([11]; 32 mA) was 5.2 mg/kg and the ED50 ([11]; 44 mA) was 28.4 mg/kg. For the same compound, the “6 Hz TPE” value ([11]; 32 mA) was “TPE 4 hours”, the “6 Hz TPE” value ([11]; 44 mA) was “TPE 4 hours” and the ED50 ([12]; Mus musculus, ip, read-out: scPIC ED50) was 60.7 mg/kg. For the same compound, the “scPIC TPE” value ([12]; Single IP drug dose, 2.5 mg/kg PIC) was “TPE 2 hours”, the “inhibition of radioligand binding at GABAB receptors” value [13] was “no inhibition of binding was observed” and the “expression of cocaine-induced CPP” value ([14]; 1.0 mg/kg i.p. 2.5 h before test, cocaine 20 mg/kg, listed as 2) was “blocked the expression of cocaine-induced CPP”. The “effect on cocaine-induced CPP relative to vigabatrin” value ([14]; 1.0 mg/kg versus vigabatrin 300 mg/kg) was 300 times, the “time spent in chamber, first printed value” [14, 16] was 7.9 ± 1.5 min and the “time spent in chamber, second printed value” [14, 16] was 7.1 ± 1.9 min. For the same compound, the “time spent in chamber, first printed value” [14, 17] was 8.1 ± 3.2 min, the “time spent in chamber, second printed value” [14, 17] was 6.9 ± 3.9 min and the “effective dose, times lower than the 300 mg/kg dose of vigabatrin” value ([15]; 0.5 mg/kg versus 300 mg/kg) was 600 times. For the same compound, the “effect on cocaine-induced increases in synaptic dopamine” value ([15]; 0.5 mg/kg, 2.5 h before cocaine 5.0 mg/kg i.v.) was “complete blockade of cocaine-induced increases in synaptic dopamine” and the “dose blocking cocaine-induced dopamine increase and CPP, times lower than vigabatrin” value ([15]; μPET and CPP, summary statement) was 100 times.
